Assay results taken from patent publication US20250032430A1, “USES OF RHODOQUINONE FOR THE TREATMENT OF DISEASE” (Whitehead Institute for Biomedical Research, priority 2021, published 2025).

Key:
[1] = tested on: 143B cells; assay: 14C-palmitate degradation radioactivity assay (fatty acid oxidation); format: cell-based, human; conditions: WT (UQ-containing) versus RquA (RQ-containing) 143B cells
Text: Radioactivity assay to monitor 14C-palmitate degradation in WT (UQ-containing) and RquA (RQ-containing) 143B cells.

[2] = tested on: mitochondrial membrane potential; assay: Mitochondrial membrane potential (TMRE dye); format: cell-based, human
Procedure: Live Cell Imaging: 143B cells were seeded at 50% density in 6-well dishes 24 hours prior to the experiment. Cells were pre-incubated with 500 nM TMRE dye for 30 minutes and then imaging on a Nikon TE2000 inverted microscope was started. Images were taken at 1 minute intervals over the course of an hour in the mCherry channel while the plate was incubated in a chamber maintaining a temperature of 37° C. and 5% CO2.
Flow Cytometry: Cells were seeded 24 hours prior to the experiment at 50% density. On the day of the experiment, the cells were treated for the designated time with inhibitors. 30 minutes prior to the end of the incubation, 500 nM TMRE dye was added to the wells. Following incubation cells were washed, trypsinized, and filtered through a cell strainer prior to sorting. Fluorescence-activated cell sorting was performed on a LSR-II sorter, in which the fluorescence intensity of individual cells was quantified in the PE channel. Data were analyzed using FlowJo software (TreeStar).

[3] = tested on: SW1353, U87, DLD1, HCT116, C2C12, primary dermal fibroblasts, Mink lung epithelial cells; assay: Fumarate reduction in a panel of other cell lines; format: cell-based; conditions: other human cancer cell lines
Procedure: Stable isotope tracing in cells: Cells were seeded 24 hours prior to the experiment in 6-well dishes at 70% density. For stable isotope tracing of glutamine, glutamine-free DMEM (ThermoFisher) was supplemented with 2 mM ^13C5^15N2-glutamine (Sigma), 1 mM pyruvate, 5% FBS, 1% P/S, 0.1 mg/mL uridine. For stable isotope tracing of aspartate, DMEM containing 5% FBS, and 1% penicillin and streptomycin, and 0.1 mg/mL uridine (Sigma) was supplemented with the designated amount of 13C4-aspartate (Sigma) and the pH adjusted to 7.4. Uridine was left out of the media for stable isotope tracing experiments measuring nucleotide biosynthesis. Unless otherwise stated, for all experiments, cells were treated for 8 hours and metabolites were isolated as described below. Relevant compounds were added at the start of the incubation periods.

[4] = tested on: MT-DNA copy number; assay: MT-DNA quantification; format: cell-based, human; conditions: SDHA and SDHB knockout cells
Procedure: MT-DNA Quantification: Cells were pelleted, washed 1× in PBS, and then lysed in buffer (25 mM NaOH, 0.2 mM EDTA) for 15 minutes at 95° C. Lysis was neutralized with buffer (40 mM Tris-HCl) and centrifuged at 16,000×g for 10 minutes at 4° C. Supernatant containing MT-DNA was quantified on a CFX96 Real-Time System Thermal Cycler (Bio Rad). Primers amplifying the MT-DNA marker D-Loop (Forward Primer-[…] (SEQ ID NO: 5) Reverse Primer—[…]) (SEQ ID NO: 6) and the nuclear DNA marker B-Globin (Forward Primer-[…] (SEQ ID NO: 7) Reverse Primer—[…]) (SEQ ID NO: 8) were used and the relative MT-DNA to nuclear DNA was quantified in each sample [4].

[5] = tested on: 143B cells; assay: Ubiquinone and ubiquinol measurement by LC-MS in mitochondria; format: cell-based, human; conditions: antimycin-treated SDHB knockout cells versus antimycin-treated wild-type cells
Procedure: Ubiquinone and Ubiquinol measurements: Ubiquinone and Ubiquinol were isolated from mitochondria purified by differential centrifugation as described above. Extraction and mass spectrometry protocols were performed with slight modifications to a previously described protocol. Briefly, mitochondria isolated from 25 million cells or approximately 100 mg mouse tissue were resuspended in 500 μL of ethanol and vortexed for 10 minutes at 4° C. Then, 1 mL of hexane was added and the samples were vortexed for an additional 10 minutes at 4° C. Samples were centrifuged at 16,000×g for 10 minutes at 4° C., creating two layers—the top hexane layer and bottom ethanol layer. The top (hexane) fraction was moved into a new tube and dried down. Immediately prior to LC-MS, samples were resuspended in 50 μL of 80:20 ethanol:hexane and loaded into a 4° C. autosampler. 5 μL of samples were injected onto a Luna 3 μm PFP(2) 100 Å, LC Column 100×2 mm. The column oven was held at 25° C. and the autosampler tray was held at 4° C. Buffer A contained water with 0.1% formic acid and Buffer B contained acetonitrile with 0.1% formic acid. […]

Row | Substance | fatty acid oxidation (14C-palmitate degradation) [1] | mitochondrial membrane potential (ΔΨMito) ([2]; SDHB-null cells versus wild-type cells, 30 minutes of antimycin treatment) | mitochondrial membrane potential (ΔΨMito) ([2]; wild-type cells, time course after antimycin) | fumarate reduction [3] | MT-DNA copy number [4] | levels of UQH2 and ratio of UQH2:UQ [5]
1 | rhodoquinone | drives lower fatty acid oxidation |  |  |  |  | 
2 | antimycin |  | substantially more depolarized | initial reduction in the ΔΨ^Mito, which was restored to pre-treatment levels | increased | did not alter | greater
